# Measurements: patent US4115541A (priority 1975, dated 1978)
# Like-named read-outs stand apart in the source and are kept apart here.
# Legend:
# [1] = Distribution of 99mTc-Sn-AEDP and 85Sr in rabbits, carrier effect of AEDP (Example 4); format: in vivo, rabbit; conditions: 2 Hrs.
# Description: Adult New Zealand albino rabbits having an average weight of 3.8 kg were utilized. Strontium-85 was employed as a standard for comparison. […] Each dosage is contained in a volume of 1 ml.
# The animals were sacrificed serially from 1 to 24 hours after injection and the activities in major organs were determined by counting multiple samples from each organ in a scintillation well counter (the technetium-99m counts were corrected for the Compton contributions from the strontium-85 activity in the technetium-99m energy window). Multiple samples were counted from the tibia, femur, spine and pelvic bones; the total activity in the skeleton was estimated by assuming the whole skeleton consisted of equal proportions by weight of tibia, spine, femur and pelvis and that the skeletal mass was 10% of the body weight. The red marrow was sampled from the femur and the total marrow was assumed to be 2.2% of the total body weight. Similarly, blood volume was assumed to be 7% and the skeletal muscle 43% of the body weight. The whole liver and both kidneys were weighed and multiple samples from each were counted to measure the total activity in each organ.
# In another series of experiments carried out as described in Example 2, the distribution of technetium 99m from its 99m-technetium-tin-methylene diphosphonate complex was determined in albino rabbits, again in comparison with strontium-85.
# The distribution of technetium 99m from its 99m technetium-tin-1-amino-ethane-1,1-diphosphonate complex was determined as in Example 3 and compared with the distribution of strontium-85.
# [2] = rabbits i.v., ~1 mg/kg EHDP
# [3] = rabbits, 2 Hrs.
# [4] = rabbits, 2 Hrs.; remark: listed apart in the source
# [5] = physical; cited from earlier work
structure (smiles),measurement,setting,value
"[85Sr+2].[Cl-].[Cl-] [^85 Sr, 85Sr chloride, reference compound]","Blood, % Dose in Whole Organ",[1]; AEDP 0.05 mg/kg,2.50 % Dose
same,"Liver, % Dose in Whole Organ",[1]; AEDP 0.5 mg/kg,0.720 % Dose
same,"Blood, % dose/1% body weight",[2]; 1 Hr.,1.70 % dose/1% body weight
same,"Bone(Avg), % dose in whole organ",[2]; 1 Hr.,56.0 % dose
same,"Bone(Avg), % dose/1% body weight",[2]; 1 Hr.,5.60 % dose/1% body weight
same,"Femur, % dose/1% body weight",[2]; 1 Hr.,4.90 % dose/1% body weight
same,"Kidneys, % Dose in Whole Organ",[2]; 1 Hr.,0.80 % dose
same,"Kidneys, % dose/1% body weight",[2]; 1 Hr.,1.75 % dose/1% body weight
same,"Liver, % dose/1% body weight",[2]; 1 Hr.,0.59 % dose/1% body weight
same,"Marrow, % Dose in Whole Organ",[2]; 1 Hr.,0.91 % dose
same,"Marrow, % dose/1% body weight",[2]; 1 Hr.,0.41 % dose/1% body weight
same,"Muscle, % dose/1% body weight",[2]; 1 Hr.,0.31 % dose/1% body weight
same,"Pelvis, % dose/1% body weight",[2]; 1 Hr.,7.07 % dose/1% body weight
same,"Spine, % dose/1% body weight",[2]; 1 Hr.,7.03 % dose/1% body weight
same,"Tibia, % dose/1% body weight",[2]; 1 Hr.,3.62 % dose/1% body weight
same,"Blood, % dose/1% body weight",[2]; 2 Hrs,1.01 % dose/1% body weight
same,"Bone(Avg), % dose/1% body weight",[2]; 2 Hrs,6.44 % dose/1% body weight
same,"Femur, % dose/1% body weight",[2]; 2 Hrs,5.74 % dose/1% body weight
same,"Kidneys, % Dose in Whole Organ",[2]; 2 Hrs,0.64 % dose
same,"Kidneys, % dose/1% body weight",[2]; 2 Hrs,1.40 % dose/1% body weight
same,"Liver, % dose/1% body weight",[2]; 2 Hrs,0.43 % dose/1% body weight
same,"Marrow, % Dose in Whole Organ",[2]; 2 Hrs,0.76 % dose
same,"Marrow, % dose/1% body weight",[2]; 2 Hrs,0.34 % dose/1% body weight
same,"Muscle, % Dose in Whole Organ",[2]; 2 Hrs,8.8 % dose
same,"Muscle, % dose/1% body weight",[2]; 2 Hrs,0.21 % dose/1% body weight
same,"Pelvis, % dose/1% body weight",[2]; 2 Hrs,7.70 % dose/1% body weight
same,"Spine, % dose/1% body weight",[2]; 2 Hrs,7.59 % dose/1% body weight
same,"Tibia, % dose/1% body weight",[2]; 2 Hrs,4.73 % dose/1% body weight
same,"Urine, % Dose",[2]; 2 Hrs,18.0 % dose
same,"Blood, % dose/1% body weight",[2]; 4 Hrs,0.55 % dose/1% body weight
same,"Bone(Avg), % dose/1% body weight",[2]; 4 Hrs,6.81 % dose/1% body weight
same,"Femur, % dose/1% body weight",[2]; 4 Hrs,6.17 % dose/1% body weight
same,"Kidneys, % Dose in Whole Organ",[2]; 4 Hrs,0.34 % dose
same,"Kidneys, % dose/1% body weight",[2]; 4 Hrs,0.71 % dose/1% body weight
same,"Liver, % dose/1% body weight",[2]; 4 Hrs,0.26 % dose/1% body weight
same,"Marrow, % Dose in Whole Organ",[2]; 4 Hrs,0.50 % dose
same,"Marrow, % dose/1% body weight",[2]; 4 Hrs,0.23 % dose/1% body weight
same,"Muscle, % dose/1% body weight",[2]; 4 Hrs,0.15 % dose/1% body weight
same,"Pelvis, % dose/1% body weight",[2]; 4 Hrs,8.02 % dose/1% body weight
same,"Spine, % dose/1% body weight",[2]; 4 Hrs,7.82 % dose/1% body weight
same,"Tibia, % dose/1% body weight",[2]; 4 Hrs,5.13 % dose/1% body weight
same,"Blood, % Dose in Whole Organ",[2]; 24 Hrs,0.29 % dose
same,"Blood, % dose/1% body weight",[2]; 24 Hrs,0.04 % dose/1% body weight
same,"Bone(Avg), % dose/1% body weight",[2]; 24 Hrs,5.21 % dose/1% body weight
same,"Femur, % dose/1% body weight",[2]; 24 Hrs,4.83 % dose/1% body weight
same,"Kidneys, % Dose in Whole Organ",[2]; 24 Hrs,0.03 % dose
same,"Kidneys, % dose/1% body weight",[2]; 24 Hrs,0.06 % dose/1% body weight
same,"Liver, % dose/1% body weight",[2]; 24 Hrs,0.02 % dose/1% body weight
same,"Marrow, % Dose in Whole Organ",[2]; 24 Hrs,0.10 % dose
same,"Marrow, % dose/1% body weight",[2]; 24 Hrs,0.05 % dose/1% body weight
same,"Muscle, % Dose in Whole Organ",[2]; 24 Hrs,1.00 % dose
same,"Pelvis, % dose/1% body weight",[2]; 24 Hrs,5.26 % dose/1% body weight
same,"Spine, % dose/1% body weight",[2]; 24 Hrs,6.47 % dose/1% body weight
same,"Tibia, % dose/1% body weight",[2]; 24 Hrs,4.27 % dose/1% body weight
same,"Ave Bone, % Dose/1% body weight",[3]; MDP 0.01 mg/kg,11.85 % Dose/1% body weight
same,"Blood, % dose/1% body weight",[3]; MDP 0.01 mg/kg,0.47 % Dose/1% body weight
same,"Femur, % dose/1% body weight",[3]; MDP 0.01 mg/kg,13.93 % Dose/1% body weight
same,"Kidneys, % Dose in Whole Organ",[3]; MDP 0.01 mg/kg,0.34 % Dose
same,"Kidneys, % dose/1% body weight",[3]; MDP 0.01 mg/kg,0.54 % Dose/1% body weight
same,"Liver, % Dose in Whole Organ",[3]; MDP 0.01 mg/kg,0.65 % Dose
same,"Liver, % dose/1% body weight",[3]; MDP 0.01 mg/kg,0.16 % Dose/1% body weight
same,"Marrow, % Dose in Whole Organ",[3]; MDP 0.01 mg/kg,0.53 % Dose
same,"Marrow, % dose/1% body weight",[3]; MDP 0.01 mg/kg,0.24 % Dose/1% body weight
same,"Muscle, % dose/1% body weight",[3]; MDP 0.01 mg/kg,0.13 % Dose/1% body weight
same,"Pelvis, % dose/1% body weight",[3]; MDP 0.01 mg/kg,13.55 % Dose/1% body weight
same,"Spine, % dose/1% body weight",[3]; MDP 0.01 mg/kg,12.78 % Dose/1% body weight
same,"Tibia, % dose/1% body weight",[3]; MDP 0.01 mg/kg,7.14 % Dose/1% body weight
same,"Ave Bone, % Dose/1% body weight",[3]; MDP 0.05 mg/kg,7.29 % Dose/1% body weight
same,"Blood, % dose/1% body weight",[3]; MDP 0.05 mg/kg,0.52 % Dose/1% body weight
same,"Femur, % dose/1% body weight",[3]; MDP 0.05 mg/kg,9.10 % Dose/1% body weight
same,"Kidneys, % Dose in Whole Organ",[3]; MDP 0.05 mg/kg,0.46 % Dose
same,"Kidneys, % dose/1% body weight",[3]; MDP 0.05 mg/kg,0.9 % Dose/1% body weight
same,"Liver, % Dose in Whole Organ",[3]; MDP 0.05 mg/kg,0.71 % Dose
same,"Liver, % dose/1% body weight",[3]; MDP 0.05 mg/kg,0.22 % Dose/1% body weight
same,"Marrow, % Dose in Whole Organ",[3]; MDP 0.05 mg/kg,0.53 % Dose
same,"Marrow, % dose/1% body weight",[3]; MDP 0.05 mg/kg,0.24 % Dose/1% body weight
same,"Muscle, % dose/1% body weight",[3]; MDP 0.05 mg/kg,0.14 % Dose/1% body weight
same,"Pelvis, % dose/1% body weight",[3]; MDP 0.05 mg/kg,8.33 % Dose/1% body weight
same,"Spine, % dose/1% body weight",[3]; MDP 0.05 mg/kg,6.75 % Dose/1% body weight
same,"Tibia, % dose/1% body weight",[3]; MDP 0.05 mg/kg,4.94 % Dose/1% body weight
same,"Ave Bone, % Dose/1% body weight",[3]; MDP 0.1 mg/kg,9.17 % Dose/1% body weight
same,"Blood, % dose/1% body weight",[3]; MDP 0.1 mg/kg,0.56 % Dose/1% body weight
same,"Femur, % dose/1% body weight",[3]; MDP 0.1 mg/kg,10.0 % Dose/1% body weight
same,"Kidneys, % Dose in Whole Organ",[3]; MDP 0.1 mg/kg,0.66 % Dose
same,"Kidneys, % dose/1% body weight",[3]; MDP 0.1 mg/kg,1.00 % Dose/1% body weight
same,"Liver, % dose/1% body weight",[3]; MDP 0.1 mg/kg,0.30 % Dose/1% body weight
same,"Marrow, % Dose in Whole Organ",[3]; MDP 0.1 mg/kg,0.57 % Dose
same,"Marrow, % dose/1% body weight",[3]; MDP 0.1 mg/kg,0.26 % Dose/1% body weight
same,"Muscle, % dose/1% body weight",[3]; MDP 0.1 mg/kg,0.22 % Dose/1% body weight
same,"One femur, % dose in whole organ",[3]; MDP 0.1 mg/kg,2.80 % Dose
same,"Pelvis, % dose/1% body weight",[3]; MDP 0.1 mg/kg,12.2 % Dose/1% body weight
same,"Spine, % dose/1% body weight",[3]; MDP 0.1 mg/kg,8.45 % Dose/1% body weight
same,"Tibia, % dose/1% body weight",[3]; MDP 0.1 mg/kg,6.05 % Dose/1% body weight
same,"Ave Bone, % Dose/1% body weight",[3]; MDP 0.5 mg/kg,8.77 % Dose/1% body weight
same,"Blood, % dose/1% body weight",[3]; MDP 0.5 mg/kg,0.45 % Dose/1% body weight
same,"Femur, % dose/1% body weight",[3]; MDP 0.5 mg/kg,11.32 % Dose/1% body weight
same,"Kidneys, % Dose in Whole Organ",[3]; MDP 0.5 mg/kg,0.45 % Dose
same,"Kidneys, % dose/1% body weight",[3]; MDP 0.5 mg/kg,0.69 % Dose/1% body weight
same,"Liver, % Dose in Whole Organ",[3]; MDP 0.5 mg/kg,0.69 % Dose
same,"Liver, % dose/1% body weight",[3]; MDP 0.5 mg/kg,0.23 % Dose/1% body weight
same,"Marrow, % Dose in Whole Organ",[3]; MDP 0.5 mg/kg,0.67 % Dose
same,"Marrow, % dose/1% body weight",[3]; MDP 0.5 mg/kg,0.30 % Dose/1% body weight
same,"Muscle, % dose/1% body weight",[3]; MDP 0.5 mg/kg,0.13 % Dose/1% body weight
same,"Pelvis, % dose/1% body weight",[3]; MDP 0.5 mg/kg,8.68 % Dose/1% body weight
same,"Spine, % dose/1% body weight",[3]; MDP 0.5 mg/kg,8.92 % Dose/1% body weight
same,"Tibia, % dose/1% body weight",[3]; MDP 0.5 mg/kg,6.16 % Dose/1% body weight
same,"Kidneys, % Dose in Whole Organ",[4]; EHDP 0.01 mg/kg,0.43 % Dose
same,"Liver, % Dose in Whole Organ",[4]; EHDP 0.01 mg/kg,0.74 % Dose
same,"Marrow, % Dose in Whole Organ",[4]; EHDP 0.01 mg/kg,0.42 % Dose
same,"One Tibia, % Dose in Whole Organ",[4]; EHDP 0.01 mg/kg,2.60 % Dose
same,"Kidneys, % Dose in Whole Organ",[4]; EHDP 0.05 mg/kg,0.46 % Dose
same,"Liver, % Dose in Whole Organ",[4]; EHDP 0.05 mg/kg,0.77 % Dose
same,"Marrow, % Dose in Whole Organ",[4]; EHDP 0.05 mg/kg,0.61 % Dose
same,"Blood, % Dose in Whole Organ",[4]; EHDP 0.1 mg/kg,3.10 % Dose
same,"Kidneys, % Dose in Whole Organ",[4]; EHDP 0.1 mg/kg,0.30 % Dose
same,"Liver, % Dose in Whole Organ",[4]; EHDP 0.1 mg/kg,0.64 % Dose
same,"Marrow, % Dose in Whole Organ",[4]; EHDP 0.1 mg/kg,0.43 % Dose
same,"Muscle, % Dose in Whole Organ",[4]; EHDP 0.1 mg/kg,5.0 % Dose
same,"Kidneys, % Dose in Whole Organ",[4]; EHDP 0.5 mg/kg,0.48 % Dose
same,"Liver, % Dose in Whole Organ",[4]; EHDP 0.5 mg/kg,0.76 % Dose
same,"Marrow, % Dose in Whole Organ",[4]; EHDP 0.5 mg/kg,0.34 % Dose
same,"Urine, % Dose",[4]; EHDP 0.5 mg/kg,19.67 % Dose
same,half-life (radionuclide),[5],65 days
